Marks after values point to notes of the source that are not given here.

One assay relates to Pfotenoedem. Description: Rat paw oedema test after oral administration (anti-inflammatory effect). It is filed as in vivo, Ratte. From the text:
(§1) Die entzündungshemmende Wirkung wurde mit ausgewählten Verbindungen jedes Estertyps im Vergleich zum jeweiligen Standard im konventionellen Rattenpfotenoedemtest nach oraler Applikation untersucht. Die Ergebnisse sind in Tab. 3 zusammengefaßt. Weiterhin wurde mit einigen Verbindungen die entzündungshemmende Aktivität nach dermaler Applikation am Kaolin-induzierten Pfotenoedem der Ratte untersucht. Für den Test wurden die Substanzen in einer Mischung aus Ethanol/Aceton/Dimethylacetamid gelöst und im konstanten Volumen 30 Min. vor und 150 Min. nach Injektion von Kaolin (0,1 ml 10%-ige Suspension in Wasser) appliziert. Das Pfotenvolumen wurde 2, 4 und 6 Stunden nach Kaolininjektion gemessen. Die Ergebnisse sind in Tabelle 4 zusammengefaßt.

Assay [1] deals with Kaolin-induziertes Pfotenoedem. Description: Kaolin-induced rat paw oedema after dermal administration. It is filed as in vivo, Ratte. Particulars: 10 mg/kg standard acid, esters 12.3-13.2 mg/kg equivalent to 10 mg/kg acid, applied 30 min before and 150 min after kaolin; for % Hemmung 2h: 2 h after kaolin injection; for % Hemmung 4h: 4 h after kaolin injection; for % Hemmung 6h: 6 h after kaolin injection.
Text: as §1

In the case of `CC(C)(CO)COC(=O)c1ccccc1Nc1cccc(C(F)(F)F)c1` [Beispiel 1, Flufenaminsäureneopentylglykolmonoester], the Hemmeffekt % with Pfotenoedem (25 mg/kg) turned out to be 38%. The compound also registered a Hemmeffekt % in the assay with Pfotenoedem (50 mg/kg) of 55%. Further, in assay [1], the “% Hemmung 2h” value is reported as 2.2%, the “% Hemmung 4h” value was 23.7*** % and the “% Hemmung 6h” value is 36.8*** %.

As to `CC(C)(C)COC(=O)Cc1cn(-c2ccccc2)nc1-c1ccc(Cl)cc1` [Beispiel 3, Lonazolacneopentylester], in assay [1], the “% Hemmung 2h” value is 18.2* %, the “% Hemmung 4h” value is listed as 31.6*** % and the “% Hemmung 6h” value is given as 34.3*** %.

In turn, `CC(C(=O)OCC(=O)OCC(C)(C)C)c1ccc(-c2ccccc2)c(F)c1` (centres unmarked) [Beispiel 4] yielded a Hemmeffekt % in the assay with Pfotenoedem (25 mg/kg) of 33%.

As for `CC(C(=O)OCC(C)(C)CO)c1cccc(C(=O)c2ccccc2)c1` (centres unmarked) [Beispiel 5], in the assay with Pfotenoedem (10 mg/kg), the Hemmeffekt % was determined as 33%.

`CC(C(=O)OCC(C)(C)CO)c1ccc(C(=O)c2cccs2)cc1` (centres unmarked) [Beispiel 9]: the Hemmeffekt % turned out to be 34% with Pfotenoedem (10 mg/kg) and 43% with Pfotenoedem (25 mg/kg).

As to `CC(C)Cc1ccc(C(C)C(=O)OCC(C)(C)CO)cc1` (centres unmarked) [Beispiel 11], the Hemmeffekt % in the assay on Pfotenoedem (50 mg/kg) was determined as 47%.

`CC(C(=O)OCC(C)(C)C)c1ccc(-c2ccccc2)c(F)c1` (centres unmarked) [Beispiel 14] came in with a Hemmeffekt % in the assay on Pfotenoedem (1 mg/kg) of 35%.

In turn, `CC(C(=O)OCC(C)(C)C)c1ccc(C(=O)c2cccs2)cc1` (centres unmarked) [Beispiel 15] came in with a Hemmeffekt % in the assay on Pfotenoedem (5 mg/kg) of 37%.

Take `CC(C)(C)COC(=O)Cc1ccccc1Nc1c(Cl)cccc1Cl` [Beispiel 16]: the Hemmeffekt % in the assay with Pfotenoedem (50 mg/kg) was 36%. In assay [1], the “% Hemmung 2h” value was 19.2* %, the “% Hemmung 4h” value is 40.1*** % and the “% Hemmung 6h” value is reported as 43.2*** %.

On to `CC(C)Cc1ccc(C(C)C(=O)OCC(C)(C)C)cc1` (centres unmarked) [Beispiel 17], for which the Hemmeffekt % in the assay with Pfotenoedem (25 mg/kg) is 43%.

The compound `CC(C)(C)COC(=O)COC(=O)Cc1cn(-c2ccccc2)nc1-c1ccc(Cl)cc1` [Beispiel 22] showed a Hemmeffekt % in the assay on Pfotenoedem (15 mg/kg) of 46%.

In turn, `CC(C)(C)COC(=O)COC(=O)Cc1ccccc1Nc1c(Cl)cccc1Cl` [Beispiel 24] showed a Hemmeffekt % in the assay on Pfotenoedem (50 mg/kg) of 33%.

Compound `O=C(O)Cc1ccccc1Nc1c(Cl)cccc1Cl` [Diclofenac, 2-[(2,6-Dichlorphenyl)amino]-phenylessigsäure, reference compound] had a Hemmeffekt % in the assay with Pfotenoedem (100 mg/kg) of 38%. In assay [1], the “% Hemmung 2h” value is 0%, the “% Hemmung 4h” value is given as 36.2*** % and the “% Hemmung 6h” value was 37.6*** %.

`O=C(O)c1ccccc1Nc1cccc(C(F)(F)F)c1` [Flufenaminsäure, N-(α,α,α-Trifluor-m-tolyl)anthranilsäure, reference compound] came in with a Hemmeffekt % in the assay on Pfotenoedem (50 mg/kg) of 33%. In addition, in assay [1], the “% Hemmung 2h” value came out at 0%, the “% Hemmung 4h” value is 19.4** % and the “% Hemmung 6h” value is reported as 23.2** %.

As to `CC(C(=O)O)c1ccc(-c2ccccc2)c(F)c1` (centres unmarked) [Flurbiprofen, 2-(2-Fluor-4-biphenylyl)-propionsäure, reference compound], in the assay on Pfotenoedem (50 mg/kg), the Hemmeffekt % came to 40%.

The compound `CC(C)Cc1ccc(C(C)C(=O)O)cc1` (centres unmarked) [Ibuprofen, 2-(4-Isobutylphenyl)-propionsäure, reference compound] yielded a Hemmeffekt % in the assay with Pfotenoedem (50 mg/kg) of 35%.

As to `CC(C(=O)O)c1cccc(C(=O)c2ccccc2)c1` (centres unmarked) [Ketoprofen, 2-(3-Benzoylphenyl)-propionsäure, reference compound], the Hemmeffekt % in the assay on Pfotenoedem (38 mg/kg) came to 44%.

As for `O=C(O)Cc1cn(-c2ccccc2)nc1-c1ccc(Cl)cc1` [Lonazolac, 3-(4-Chlorphenyl)-1-phenyl-1H-pyrazol-4-essigsäure, reference compound], the Hemmeffekt % in the assay on Pfotenoedem (25 mg/kg) is 38%. Also, in assay [1], the “% Hemmung 2h” value stood at 0%, the “% Hemmung 4h” value stood at 3.1% and the “% Hemmung 6h” value is 30.0*** %.

As to `CC(C(=O)O)c1ccc(C(=O)c2cccs2)cc1` (centres unmarked) [Suprofen, 2-[4-(2-Thenoyl)phenyl]-propionsäure, reference compound], the Hemmeffekt % with Pfotenoedem (50 mg/kg) was 20%.

The record behind these values is EP0335164A2, “Ester derivatives of neopentanol, process for their preparation and their use as medicines” (Merckle GmbH, priority 1988, dated 1989).
